Measured values published in US11161850B2, “Fused pyrazine derivatives as A2A / A2B inhibitors” (Incyte Corporation, priority 2018, dated 2021).

Columns and labels:
[1] = molecular target: Adenosine A2A (Homo sapiens (Human), UniProt P29274); assay: A2A Tag-Lite HTRF assay; assay type: binding; conditions: Tag-Lite Adenosine A2A labeled cells, fluorescent ligand 12.5 nM; read-out: A2A_Ki
Description: Example C. A2A Tag-Lite® HTRF Assay

[2] = molecular target: human adenosine A2B receptor (Homo sapiens (Human), UniProt P29275); assay: Adenosine A2B Receptor Cyclic AMP GS Assay; assay type: cell-based; conditions: A2B_cAMP_EC50 (nM), HEK-293 cells expressing human A2B, agonist NECA 12 nM
Summary of the method: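 Stably transfected HEK-293 cells were preincubated with compound for 30 min at room temperature, then stimulated with 12 nM NECA for 60 min. cAMP accumulation was read by FRET (665/620 ratio), and EC50 was fitted from percent of control versus log compound concentration.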

Sequence of Adenosine A2A (P29274 whole entry): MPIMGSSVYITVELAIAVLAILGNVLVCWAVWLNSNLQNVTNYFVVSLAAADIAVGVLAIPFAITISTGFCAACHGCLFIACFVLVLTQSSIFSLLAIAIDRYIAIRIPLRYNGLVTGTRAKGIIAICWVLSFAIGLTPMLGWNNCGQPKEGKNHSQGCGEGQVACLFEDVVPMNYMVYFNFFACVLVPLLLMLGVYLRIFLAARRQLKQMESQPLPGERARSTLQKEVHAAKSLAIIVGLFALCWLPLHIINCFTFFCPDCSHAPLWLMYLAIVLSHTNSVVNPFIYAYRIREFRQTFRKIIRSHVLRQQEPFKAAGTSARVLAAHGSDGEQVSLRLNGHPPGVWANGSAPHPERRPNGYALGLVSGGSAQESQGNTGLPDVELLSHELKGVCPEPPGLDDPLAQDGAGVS
Sequence of human adenosine A2B receptor (P29275 whole entry): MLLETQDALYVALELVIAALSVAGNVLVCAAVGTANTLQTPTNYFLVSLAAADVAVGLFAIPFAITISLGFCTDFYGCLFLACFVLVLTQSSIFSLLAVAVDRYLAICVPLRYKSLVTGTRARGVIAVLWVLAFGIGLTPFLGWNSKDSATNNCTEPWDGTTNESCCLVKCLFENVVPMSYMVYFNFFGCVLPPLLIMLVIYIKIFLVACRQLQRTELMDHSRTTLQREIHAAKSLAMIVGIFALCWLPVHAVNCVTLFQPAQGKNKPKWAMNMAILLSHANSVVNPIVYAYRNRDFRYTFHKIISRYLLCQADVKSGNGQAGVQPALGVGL

SMILES	Ki [1]	EC50 [2]
N#Cc1cccc(-c2nc(N)c3nc(Cn4ncc5ccccc54)nn3c2-c2ccncn2)c1 [Example 48, 3-(2-((1H-Indazol-1-yl)methyl)-8-amino-5-(pyrimidin-4-yl)-[1,2,4]triazolo[1,5-a]pyrazin-6-yl)benzonitrile]	< 10 nM	10 to 100 nM
N#Cc1cccc(-c2nc(N)c3nc(C(O)c4ccccc4)nn3c2-c2ccncn2)c1 (stereo not shown) [Example 59, 3-(8-Amino-2-(hydroxy(phenyl)methyl)-5-(pyrimidin-4-yl)-[1,2,4]triazolo[1,5-a]pyrazin-6-yl)benzonitrile]	< 10 nM	10 to 100 nM
N#Cc1cccc(-c2nc(N)c3nc(S(=O)(=O)c4ccccc4)nn3c2-c2ccncn2)c1 [Example 60, 3-(8-Amino-2-(phenylsulfonyl)-5-(pyrimidin-4-yl)-[1,2,4]triazolo[1,5-a]pyrazin-6-yl)benzonitrile]	< 10 nM	10 to 100 nM
Cc1ncoc1-c1c(-c2cccc(C#N)c2)nc(N)c2nc(C(=O)N3CCC3)nn12 [Example 61, 3-(8-Amino-2-(azetidine-1-carbonyl)-5-(4-methyloxazol-5-yl)-[1,2,4]triazolo[1,5-a]pyrazin-6-yl)benzonitrile]	< 10 nM	< 10 nM
N#Cc1cccc(-c2nc(N)c3nc(Cc4ccccn4)nn3c2-c2ccc(O)nc2)c1 [Example 62, 3-(8-amino-5-(6-hydroxypyridin-3-yl)-2-(pyridin-2-ylmethyl)-[1,2,4]triazolo[1,5-a]pyrazin-6-yl)benzonitrile]	< 10 nM	< 10 nM
N#Cc1cccc(-c2nc(N)c3nc(Cc4cccc5ocnc45)nn3c2-c2ccncn2)c1 [Example 63, 3-(8-amino-2-(benzo[d]oxazol-4-ylmethyl)-5-(pyrimidin-4-yl)-[1,2,4]triazolo[1,5-a]pyrazin-6-yl)benzonitrile]	< 10 nM	< 10 nM
Cn1nccc1-c1cccc(F)c1Cc1nc2c(N)nc(-c3cccc(C#N)c3)c(-c3ccncn3)n2n1 [Example 64, 3-(8-amino-2-(2-fluoro-6-(1-methyl-1H-pyrazol-5-yl)benzyl)-5-(pyrimidin-4-yl)-[1,2,4]triazolo[1,5-a]pyrazin-6-yl)benzonitrile]	< 10 nM	< 10 nM
C[C@@]1(C(=O)O)CCN(Cc2cccc(F)c2Cc2nc3c(N)nc(-c4cccc(C#N)c4)c(-c4ccncn4)n3n2)C1 [Example 65, (R)-1-(2-((8-amino-6-(3-cyanophenyl)-5-(pyrimidin-4-yl)-[1,2,4]triazolo[1,5-a]pyrazin-2-yl)methyl)-3-fluorobenzyl)-3-methylpyrrolidine-3-carboxylic Acid]	< 10 nM	10 to 100 nM
CN1CCC2(CN(Cc3cccc(F)c3Cc3nc4c(N)nc(-c5cccc(C#N)c5)c(-c5ccncn5)n4n3)C2)C1=O [Example 66, 3-(8-amino-2-(2-fluoro-6-((6-methyl-5-oxo-2,6-diazaspiro[3.4]octan-2-yl)methyl)benzyl)-5-(pyrimidin-4-yl)-[1,2,4]triazolo[1,5-a]pyrazin-6-yl)benzonitrile]	< 10 nM	< 10 nM
N#Cc1cccc(-c2nc(N)c3nc(Cc4c(F)cccc4CN4CCN5C(=O)CCC5C4)nn3c2-c2ccncn2)c1 (stereo not shown) [Example 67, 3-(8-amino-2-(2-fluoro-6-((6-oxohexahydropyrrolo[1,2-a]pyrazin-2(1H)-yl)methyl)benzyl)-5-(pyrimidin-4-yl)-[1,2,4]triazolo[1,5-a]pyrazin-6-yl)benzonitrile]	< 10 nM	< 10 nM
N#Cc1cccc(-c2nc(N)c3nc(Cc4c(F)cccc4CN[C@H]4CCNC4=O)nn3c2-c2ccncn2)c1 [Example 68, (S)-3-(8-amino-2-(2-fluoro-6-(((2-oxopyrrolidin-3-yl)amino)methyl)benzyl)-5-(pyrimidin-4-yl)-[1,2,4]triazolo[1,5-a]pyrazin-6-yl)benzonitrile]	< 10 nM	10 to 100 nM
